# According to patent publication US20120129212A1, “METHOD OF MONITORING ERYTHROPOIESIS” (VERTEX PHARMACEUTICALS INCORPORATED, priority 2009, published 2012):
# Test system: erythropoiesis (nascent erythrocytes)
# Assay: Cobalt chloride-induced erythropoiesis in eGFP mice (FACS of erythrocyte eGFP fluorescence)
# Format: in vivo, hemizygous BALB/c mice
# Details: for effect on erythropoiesis (right-shift of eGFP fluorescence curves): subcutaneous injection, six mice
# Experimental: Mice were anesthetized with isofluorane and a minute incision was made into the lateral tail vein. Approximately 1 μl of tail vein blood was diluted into 0.5 ml of sterile saline containing 3 mM EDTA and stored at 4° C. Fluorescence activated cell sorting (FACS) was performed within 6 hours of blood collection on a FACSAria (BD Biosciences, San Jose, Calif.) flow cytometer. A 488 nm laser was used to excite the eGFP and a 530/30 nm band-pass filter and a 502 nm long-pass filter were used to monitor emissions. Forward and side scatter were used to gate for single erythrocytes, with approximately one hundred thousand events measured per blood sample. Median Fluorescence Intensity (MFI) for each erythrocyte population was analyzed using FlowJo 7.2.5 software (Tree Star, Inc. Ashland, Oreg.).
# Tail vein blood (1 μl) was collected daily from one-year old hemizygous BALB/c mice starting on the day before cobalt chloride treatment (Day −1) and continuing through three days after treatment (Day 3) as described in Example 1, On Day 0, six one-year old BALB/c (hemizygous) mice were subcutaneously injected with 0.1 mL saline containing 4 μmols of cobalt chloride. FACS was performed immediately following the blood draw, and data were analyzed with FlowJo software as described in Example 1.
smiles,measurement,setting,value
[Cl][Co][Cl] [cobalt chloride],increase in the number of nascent erythrocytes,"4 μmols cobalt chloride s.c. on Day 0, Day 2 vs Day −1, statistically significant",10 fold
same,effect on erythropoiesis (right-shift of eGFP fluorescence curves),,stimulates erythropoiesis in vivo
same,effect on erythropoiesis (right-shift of eGFP fluorescence curves),listed as Cobalt chloride,stimulated erythropoiesis in each of the six mice tested
